Results as given in US20260091050A1, “ADVANTAGEOUS ANTI-HCV COMBINATION THERAPY” (Atea Pharmaceuticals, Inc., priority 2021, published 2026).

Legend:
[1] = molecular target: human mitochondrial RNA-dependent RNA polymerase (POLRMT) (Homo sapiens, UniProt O00411); test: Incorporation of nucleotide analog triphosphates by human mitochondrial RNA polymerase; type: biochemical
Method: The incorporation of these analogs by human mitochondrial RNA-dependent RNA polymerase (POLRMT) were determined according to Arnold et al. (Sensitivity of Mitochondrial Transcription and Resistance of RNA Polymerase II Dependent Nuclear Transcription to Antiviral Ribonucleotides. PLoS Pathog., 2012, 8, e1003030).

[2] = Storage stability of Compound 1 forms and amorphous salts at 25° C./60% RH for 14 days (HPLC, observation); settings: for Stability on storage: 14 days (2 weeks) at 25° C./60% RH
Method: This initial characterization was followed by storage at 25° C./60% relative humidity (RH) for 14 days with analysis by HPLC and XRPD after 7 and 14 days. FIG. 4A is the XRPD after 14 days at 25° C./60% (RH).
The samples were then frozen with the solvent removed by lyophilization.
The samples were then subjected to storage at 25° C./60% relative humidity (RH) for 14 days with analysis by HPLC and XRPD after 7 (FIG. 4B) and 14 days (FIG. 5A).

[3] = Plasma profiles of Compound 1 and metabolite 1-7 after single oral dose of Compound 1-A, Sprague-Dawley rats; type: in vivo; settings: rat, single oral dose of Compound 1-A 500 mg/kg (0.5% CMC, 0.5% Tween 80 in water)
[4] = Plasma profiles of Compound 1 and metabolite 1-7 after single oral doses of Compound 1-A, cynomolgus monkeys; type: in vivo; settings: monkey
[5] = Single ascending dose study of Compound 1-A in healthy volunteers (Part A); type: in vivo, human; settings: healthy subjects, single dose of Compound 1-A 400 mg, median (range)
Method: Compound 1-A was tested in a single ascending dose (SAD) study to measure its safety, tolerability, and pharmacokinetic in healthy subjects (Part A). Part A was a randomized, double-blind, placebo-controlled SAD study. Healthy subjects in Part A received a single dose of Compound 1-A or placebo in the fasting state. Subjects were confined to the clinic from Day −1 to Day 6.
Dosing in each cohort was staggered such that 2 subjects (1 active:1 placebo) were evaluated for 48 hours after dosing before the remainder of the cohort was dosed. Each cohort received Compound 1-A in ascending order. Dosing of sequential cohorts occurred based on review of available safety data (through Day 5) and plasma pharmacokinetic data (through 24 h) of the prior cohort.
As pharmacokinetic and safety data emerged from prior cohorts, doses evaluated in Cohorts 3a-4a were adjusted by increments no more than 100 mg.
Healthy volunteers in the Part A portion of the study were male and female subjects between the ages of 18 and 65. Active and placebo recipients were pooled within each Part A cohort to preserve the study blind.

[6] = test system: GT1 HCV; test: Single ascending dose study of Compound 1-A in GT1-HCV infected patients (Part B); type: in vivo, human; settings: GT1-HCV infected patients, Compound 1-A 300 mg (second 300 mg line), median (range)
Method: Subjects in Part B received a single dose of Compound 1-A in the fasting state. Patients were confined to the clinic from Day −1 to Day 6.
Part B was initiated after the safety (through Day 5) and plasma pharmacokinetic (through 24 h) data review from Cohort 3a in Part A. Available safety data (through Day 5) and pharmacokinetic data (through 24 h) was reviewed for the first cohort in Part B (Cohort 1b) before enrolling subsequent Part B cohorts. Subsequent Part B cohorts were only dosed following review of available safety and pharmacokinetic data from the respective doses in Part A as well as available safety (through Day 5) from the prior Part B cohorts.
Patients infected with HCV were treatment-naïve, non-cirrhotic GT1-infected subjects with a viral load of ≥5 log10 IU/mL.
Baseline was defined as the mean of Day −1 and Day 1 (pre-dose). […] The mean maximum HCV RNA reduction 24 hours post-dose following a single 300 mg dose was 1.7 log10 IU/mL and this compares to a −2 log 10 IU/mL reduction after 1 day of 400 mg of sofosbuvir monotherapy in GT1a HCV-infected subjects. The mean maximum HCV RNA reduction 24 hours post-dose following a single 100 mg dose was 0.8 log10 IU/mL. The mean 10 maximum HCV RNA reduction was 2.2 log10 IU/mL following a single 400 mg dose.

[7] = test system: GT1 HCV; test: Multiple dose study, 7 days QD, non-cirrhotic GT1 HCV-infected patients (Part C); type: in vivo, human
Method: (§1) Doses were administered as the Compound 1-A salt base. The free base Compound 1 equivalent is often given in parenthesis.
(§2) Part C was a randomized, double-blind, placebo-controlled MAD study divided into three cohorts. […] The dose escalation only proceeded following satisfactory review of the data.
(§3) HCV-infected patients were treatment-naïve with HCV RNA ≥5 log 10 IU/mL. HCV RNA was quantified using COBAS® AmpliPrep TaqMAN® v2.0 with LLQ of 15 IU/mL. Plasma drug levels were measured using LC-MS/MS. […] Mean ages of enrolled subjects were 44, 39, and 56 years in the non-cirrhotic GT1b 600 mg dose cohort, non-cirrhotic GT3 cohort, and the cirrhotic cohort, respectively.

[8] = test system: GT3 HCV; test: 600 mg QD for 7 days in non-cirrhotic GT3 HCV-infected patients (Part D); type: in vivo, human; settings: 600 mg QD, Part D
Method: as §1, §2, §3

[9] = test system: GT1, GT2, or GT3 HCV; test: 600 mg QD for 7 days in Child-Pugh A cirrhotic patients with GT1, GT2 or GT3 HCV (Part E); type: in vivo, human
Method: Doses were administered as the Compound 1-A salt base. The free base Compound 1 equivalent is often given in parenthesis. […]
as §3

[10] = Three-part study (Parts C, D, E) of Compound 1-A: overall safety/tolerability and pharmacokinetics; type: in vivo, human; settings: for AUC: human, plasma, oral, Part C
Method: as §2
HCV-infected patients were treatment-naïve with HCV RNA ≥5 log 10 IU/mL. […] Plasma drug levels were measured using LC-MS/MS.

[11] = test system: replicons containing the NS5B sequences from HCV patient plasma samples (GT1a, 1b, 2a, 2b, 3a-1, 3a-2, 4a and 4d); test: Replicons containing NS5B sequences from HCV patient plasma samples (clinical isolates); type: cell-based; settings: GT1, GT3, and GT4 clinical isolates, nucleoside equivalent
[12] = test system: HCV; settings: cited from earlier work
[13] = incorporation by human mitochondrial RNA polymerase
[14] = single oral dose of Compound 1-A 30 mg/kg (powder in capsules)
[15] = single oral dose of Compound 1-A 100 mg/kg (powder in capsules)
[16] = single oral dose of Compound 1-A 300 mg/kg (powder in capsules)

Chain of human mitochondrial RNA-dependent RNA polymerase (POLRMT) (O00411 42-1230): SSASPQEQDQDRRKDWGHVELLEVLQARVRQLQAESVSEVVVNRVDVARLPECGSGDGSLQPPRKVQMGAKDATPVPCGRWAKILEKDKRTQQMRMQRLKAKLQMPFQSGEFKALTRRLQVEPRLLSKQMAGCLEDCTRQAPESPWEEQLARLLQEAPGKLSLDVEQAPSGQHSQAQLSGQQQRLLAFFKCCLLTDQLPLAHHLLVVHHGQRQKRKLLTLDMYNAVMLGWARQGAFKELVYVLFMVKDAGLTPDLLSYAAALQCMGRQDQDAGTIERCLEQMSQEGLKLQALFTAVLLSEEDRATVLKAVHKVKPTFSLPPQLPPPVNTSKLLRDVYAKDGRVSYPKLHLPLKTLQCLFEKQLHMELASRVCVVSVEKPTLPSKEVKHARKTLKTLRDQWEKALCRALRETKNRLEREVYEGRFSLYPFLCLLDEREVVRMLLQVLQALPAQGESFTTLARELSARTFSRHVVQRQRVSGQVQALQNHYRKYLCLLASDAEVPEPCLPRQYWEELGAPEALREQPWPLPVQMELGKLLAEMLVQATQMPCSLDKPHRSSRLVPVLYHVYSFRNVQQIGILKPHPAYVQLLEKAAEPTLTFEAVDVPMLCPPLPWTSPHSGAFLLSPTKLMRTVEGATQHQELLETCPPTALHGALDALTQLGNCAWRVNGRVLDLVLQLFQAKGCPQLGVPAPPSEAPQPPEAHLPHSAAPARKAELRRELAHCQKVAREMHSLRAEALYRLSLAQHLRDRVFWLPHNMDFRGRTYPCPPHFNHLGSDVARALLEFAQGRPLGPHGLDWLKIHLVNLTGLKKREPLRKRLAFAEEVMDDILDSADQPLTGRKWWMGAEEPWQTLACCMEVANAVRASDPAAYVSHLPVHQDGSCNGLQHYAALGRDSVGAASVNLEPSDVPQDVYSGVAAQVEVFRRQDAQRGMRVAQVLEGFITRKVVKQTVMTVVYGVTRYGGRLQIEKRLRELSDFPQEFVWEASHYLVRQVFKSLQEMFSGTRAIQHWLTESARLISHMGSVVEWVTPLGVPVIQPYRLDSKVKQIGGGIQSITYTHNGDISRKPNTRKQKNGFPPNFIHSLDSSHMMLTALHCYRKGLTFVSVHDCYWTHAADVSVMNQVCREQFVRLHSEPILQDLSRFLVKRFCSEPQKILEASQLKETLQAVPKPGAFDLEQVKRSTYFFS

C[C@@]1(O)[C@H](O)[C@@H](COP(=O)(O)OP(=O)(O)OP(=O)(O)O)O[C@H]1n1cnc2c(=O)[nH]c(N)nc21 [2′-C-methyl GTP]
Kpol [1, 13]: 0.051 s⁻¹

C[C@@]1(F)[C@H](O)C(CO[P@@](=O)(O)OP(=O)(O)OP(=O)(O)O)O[C@H]1n1ccc(=O)[nH]c1=O (stereo partly drawn) [2′-deoxy-2′-F-2′-C-methyl UTP]
Kpol [1, 13]: 0.00034 s⁻¹

CNc1nc(N)nc2c1ncn2[C@@H]1O[C@H](CO[P@@](=O)(N[C@@H](C)C(=O)OC(C)C)Oc2ccccc2)[C@@H](O)[C@@]1(C)F [Sample 1-1, isopropyl((S)-(((2R,3R,4R,5R)-5-(2-amino-6-(methylamino)-9H-purin-9-yl)-4-fluoro-3-hydroxy-4-methyltetrahydrofuran-2-yl)methoxy)(phenoxy)phosphoryl)-L-alaninate]
HPLC ([2]; 0 days at 25° C./60% RH): 98.6
Observation ([2]; 0 days at 25° C./60% RH): White solid
HPLC ([2]; 7 days at 25° C./60% RH): 98.7
Observation ([2]; 7 days at 25° C./60% RH): White solid
Stability on storage [2]: stable
HPLC ([2]; 14 days at 25° C./60% RH): 98.5
Observation ([2]; 14 days at 25° C./60% RH): White solid

CNc1nc(N)nc2c1ncn2[C@@H]1O[C@H](CO[P@@](=O)(N[C@@H](C)C(=O)OC(C)C)Oc2ccccc2)[C@@H](O)[C@@]1(C)F [Sample 1-2, isopropyl((S)-(((2R,3R,4R,5R)-5-(2-amino-6-(methylamino)-9H-purin-9-yl)-4-fluoro-3-hydroxy-4-methyltetrahydrofuran-2-yl)methoxy)(phenoxy)phosphoryl)-L-alaninate]
HPLC ([2]; 0 days at 25° C./60% RH): 99.1
Observation ([2]; 0 days at 25° C./60% RH): White solid
HPLC ([2]; 7 days at 25° C./60% RH): 99.2
Observation ([2]; 7 days at 25° C./60% RH): White solid
Stability on storage [2]: stable
HPLC ([2]; 14 days at 25° C./60% RH): 99.0
Observation ([2]; 14 days at 25° C./60% RH): White solid

CNc1nc(N)nc2c1ncn2[C@@H]1O[C@H](CO[P@@](=O)(N[C@@H](C)C(=O)OC(C)C)Oc2ccccc2)[C@@H](O)[C@@]1(C)F [Sample 1-3]
HPLC ([2]; 0 days at 25° C./60% RH): 99.7
Observation ([2]; 0 days at 25° C./60% RH): White solid
HPLC ([2]; 7 days at 25° C./60% RH): 99.6
Observation ([2]; 7 days at 25° C./60% RH): White solid
HPLC ([2]; 14 days at 25° C./60% RH): 99.4
Observation ([2]; 14 days at 25° C./60% RH): White solid

CNc1nc(N)nc2c1ncn2[C@@H]1O[C@H](CO[P@@](=O)(N[C@@H](C)C(=O)OC(C)C)Oc2ccccc2)[C@@H](O)[C@@]1(C)F [Sample 1-9]
HPLC ([2]; 0 days at 25° C./60% RH): 98.7
Observation ([2]; 0 days at 25° C./60% RH): White solid
HPLC ([2]; 7 days at 25° C./60% RH): 98.1
Observation ([2]; 7 days at 25° C./60% RH): White solid
Stability on storage [2]: physically and chemically stable
HPLC ([2]; 14 days at 25° C./60% RH): 96.4
Observation ([2]; 14 days at 25° C./60% RH): White solid

C[C@@]1(F)[C@H](O)[C@@H](COP(=O)(O)OP(=O)(O)OP(=O)(O)O)O[C@H]1n1cnc2c(=O)[nH]c(N)nc21 [metabolite 1-6]
incorporation by human mitochondrial RNA polymerase [1]: poorly incorporated
Relative Efficiency ([1]; (Kpol/Kd, app)analog nucleotide/(Kpol/Kd, app)natural nucleotide): 2.2 × 10^−6
Kpol [1, 13]: 0.0017 s⁻¹
Kpol/Kd, app [1, 13]: 8.3 M⁻¹ s⁻¹
Kd ([1]; incorporation by human mitochondrial RNA polymerase, read-out: Kd, app): 204 µM

C[C@@]1(F)[C@H](O)[C@@H](CO)O[C@H]1n1cnc2c(=O)[nH]c(N)nc21 [metabolite 1-7, 2-amino-9-((2R,3R,4R,5R)-3-fluoro-4-hydroxy-5-(hydroxymethyl)-3-methyltetrahydrofuran-2-yl)-1,9-dihydro-6H-purin-6-one]
AUC0-last [3]: 9640 ng·h/mL
Cmax [3]: 541 ng/mL
T1/2 [3]: 15.3 h
Tmax [3]: 6 to 8 h
AUC0-last [4, 14]: 1620 ng·h/mL
Cmax [4, 14]: 42.5 ng/mL
T1/2 [4, 14]: 11.5 h
Tmax [4, 14]: 12 to 24 h
AUC0-last [4, 15]: 3030 ng·h/mL
Cmax [4, 15]: 131 ng/mL
T1/2 [4, 15]: 15.0 h
Tmax [4, 15]: 4 h
AUC0-last [4, 16]: 3660 ng·h/mL
Cmax [4, 16]: 93.6 ng/mL
T1/2 [4, 16]: 18.8 h
Tmax [4, 16]: 4 to 24 h
Tmax [5]: 6.0 (4.0-8.0) h
Tmax [6]: 4.0 (3.0-6.0) h
subjects achieving HCV RNA <LOQ ([7]; 600 mg QD, non-cirrhotic GT1b, LOQ=15 IU/mL): 50%
time of peak formation after dosing ([7]; Part C): approximately 6 hours
subjects achieving HCV RNA below the lower limit of quantitation [8]: 17%
subjects achieving HCV RNA below the lower limit of quantitation ([9]; 600 mg QD, Part E): 17%
day on which steady state of concentrations was reached ([9]; subjects with cirrhosis): 5 days
T1/2 SS ([10]; Part E, 600 mg/d (n=6), steady state): 24.4 ± 9.81 h
AUC ([10]; 150 mg/d, AUC Day 1 (AUC, for Metabolite 1-7), 150 mg/d (n=6), Day 1): 800 ± 213 ng·h/mL
AUC ([10]; 150 mg/d, AUC SS (AUC, for Metabolite 1-7), 150 mg/d (n=6), steady state): 962 ± 409 ng·h/mL
AUC ([10]; 300 mg/d, AUC Day 1 (AUC, for Metabolite 1-7), 300 mg/d (n=6), Day 1): 1410 ± 220 ng·h/mL
AUC ([10]; 300 mg/d, AUC SS (AUC, for Metabolite 1-7), 300 mg/d (n=6), steady state): 1830 ± 453 ng·h/mL
food effect on total and trough exposure ([10]; in vivo): No food effect

CC(C)OC(=O)[C@H](C)N[P@](=O)(OC[C@H]1O[C@@H](n2ccc(=O)[nH]c2=O)[C@](C)(F)[C@@H]1O)Oc1ccccc1 [sofosbuvir]
EC95 [11]: greater than 100 ng/mL
HCV RNA reduction ([12]; after 1 day of 400 mg monotherapy, GT1a HCV-infected subjects): −2 log 10 IU/mL
steady-state trough concentration ([12]; similar dosage form (400 mg QD)): approximately 100 ng/mL
